The text below walks through data of ChEMBL document CHEMBL1155953, “Synthesis and biological evaluation of C-12' substituted vinflunine derivatives” (Bioorg Med Chem Lett, 2008).

A word on the IC50: it is the concentration needed to halve the response being measured. The low end stands for inhibition by little substance, the high end for a need for much substance.

SMILES strings stand for the structures.

For the experiment, the system named is A549. Put plainly: Cytotoxicity against human A549 cells by SRB assay. The format is functional, cell-based. Background: The SRB assay estimates cell density from bound dye.
In turn, `CC[C@]12C=CCN3CC[C@@]4(c5cc([C@@]6(C(=O)OC)C[C@H]7C[C@@H](C(C)(F)F)CN(Cc8c6[nH]c6ccc(-c9ccc(Cl)cc9)cc86)C7)c(OC)cc5N(C)[C@H]4[C@@](O)(C(=O)OC)[C@@H]1OC(C)=O)[C@@H]32` returned an IC50 of 1170 nM.

In the case of `CCc1ccc2[nH]c3c(c2c1)CCN1C[C@H](C[C@@H](C(C)(F)F)C1)C[C@]3(C(=O)OC)c1cc2c(cc1OC)N(C)[C@H]1[C@@](O)(C(=O)OC)[C@H](OC(C)=O)[C@]3(CC)C=CCN4CC[C@]21[C@@H]43`, the IC50 was determined as 920 nM.

For the compound `CC[C@]12C=CCN3CC[C@@]4(c5cc([C@@]6(C(=O)OC)C[C@H]7C[C@@H](C(C)(F)F)CN(Cc8c6[nH]c6ccc(CN9CCOCC9)cc86)C7)c(OC)cc5N(C)[C@H]4[C@@](O)(C(=O)OC)[C@@H]1OC(C)=O)[C@@H]32`, the IC50 was 3930 nM.

`CC[C@]12C=CCN3CC[C@@]4(c5cc([C@@]6(C(=O)OC)C[C@H]7C[C@@H](C(C)(F)F)CN(Cc8c6[nH]c6ccc(NC(=O)OC)cc86)C7)c(OC)cc5N(C)[C@H]4[C@@](O)(C(=O)OC)[C@@H]1OC(C)=O)[C@@H]32` yielded a half-inhibitory concentration (IC50) of 420 nM. Against the preceding compound, the IC50 is about 9.4-fold lower.

In turn, `CC[C@]12C=CCN3CC[C@@]4(c5cc([C@@]6(C(=O)OC)C[C@H]7C[C@@H](C(C)(F)F)CN(CCc8c6[nH]c6ccc(NS(C)(=O)=O)cc86)C7)c(OC)cc5N(C)[C@H]4[C@@](O)(C(=O)OC)[C@@H]1OC(C)=O)[C@@H]32` had an IC50 of 320 nM.

Regarding `CC[C@]12C=CCN3CC[C@@]4(c5cc([C@@]6(C(=O)OC)C[C@H]7C[C@@H](C(C)(F)F)CN(Cc8c6[nH]c6ccc(-c9ccc(C#N)cc9)cc86)C7)c(OC)cc5N(C)[C@H]4[C@@](O)(C(=O)OC)[C@@H]1OC(C)=O)[C@@H]32`, the IC50 was determined as 2500 nM.

In the case of `CC[C@]12C=CCN3CC[C@@]4(c5cc([C@@]6(C(=O)OC)C[C@H]7C[C@@H](C(C)(F)F)CN(CCc8c6[nH]c6ccc(NC(C)=O)cc86)C7)c(OC)cc5N(C)[C@H]4[C@@](O)(C(=O)OC)[C@@H]1OC(C)=O)[C@@H]32`, the IC50 amounted to 41000 nM.

In the case of `CC[C@]12C=CCN3CC[C@@]4(c5cc([C@@]6(C(=O)OC)C[C@H]7C[C@@H](C(C)(F)F)CN(Cc8c6[nH]c6ccc(NC(=O)NC)cc86)C7)c(OC)cc5N(C)[C@H]4[C@@](O)(C(=O)OC)[C@@H]1OC(C)=O)[C@@H]32`, 35100 nM corresponded to half-maximal inhibition (IC50).

As for `CC[C@]12C=CCN3CC[C@@]4(c5cc([C@@]6(C(=O)OC)C[C@H]7C[C@@H](C(C)(F)F)CN(CCc8c6[nH]c6ccc(-c9ccc(C)cc9)cc86)C7)c(OC)cc5N(C)[C@H]4[C@@](O)(C(=O)OC)[C@@H]1OC(C)=O)[C@@H]32`, the concentration for half-maximal inhibition (IC50) amounted to 560 nM.

Take `CC[C@]12C=CCN3CC[C@@]4(c5cc([C@@]6(C(=O)OC)C[C@H]7C[C@@H](C(C)(F)F)CN(Cc8c6[nH]c6ccc(C9CC9)cc86)C7)c(OC)cc5N(C)[C@H]4[C@@](O)(C(=O)OC)[C@@H]1OC(C)=O)[C@@H]32`: the half-inhibitory concentration (IC50) was found to be 120 nM.

In turn, `CC[C@]12C=CCN3CC[C@@]4(c5cc([C@@]6(C(=O)OC)C[C@H]7C[C@@H](C(C)(F)F)CN(CCc8c6[nH]c6ccc(N)cc86)C7)c(OC)cc5N(C)[C@H]4[C@@](O)(C(=O)OC)[C@@H]1OC(C)=O)[C@@H]32` had a half-inhibitory concentration (IC50) of 37800 nM.

`CC[C@]12C=CCN3CC[C@@]4(c5cc([C@@]6(C(=O)OC)C[C@H]7C[C@@H](C(C)(F)F)CN(CCc8c6[nH]c6ccc(C(C)=O)cc86)C7)c(OC)cc5N(C)[C@H]4[C@@](O)(C(=O)OC)[C@@H]1OC(C)=O)[C@@H]32` had an IC50 of 4720 nM. This IC50 lies about 8-fold lower than the previous one.
